Reference: patent US12528816B2, “Substituted imidazo [1,2-b] pyridazines and [1, 2, 4] triazolo [ 4,3-b] pyridazines as camkii inhibitors” (Cardurion Pharmaceuticals, INC., priority 2020, dated 2026)

Target: T1, human CaMKIIδ (Homo sapiens, UniProt Q13557)
T1 construct: Full-length, glutathione-S-transferase(GST)-tagged, human CaMKIIδ was purchased from Carna Biosciences; purchased Carna Biosciences (CaMKIIδ); Wako Pure Chemical Industries (calmodulin) 02-111
Experiment: Evaluation of in vitro CaMKII inhibitory activity (binding assay, TR-FRET)
Conditions: not given
Summary of the method: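 Inhibitors, in eight concentrations of 4-fold dilution, were incubated 1 h at room temperature with a protein–fluorescent probe premix preformed 30 min on ice, containing calmodulin and terbium anti-GST antibody. Displacement read by TR-FRET in duplicate; IC50 by logistic fitting.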

How did the IC50 turn out when `C[C@@H](Cn1cncn1)Oc1cc(-c2ccn3ncc(-c4cc(F)ccc4C#N)c3n2)ccn1` [compound 286] was run?
The IC50 was under 10 nM.

Same assay, conditions: human CaMKIIδ, TR-FRET binding assay; class symbols A/B/C; read-out: Act (CaMKII inhibitory activity, binding assay)

`COc1cc(F)cc(-c2cnc3ccc(-c4cc(N[C@@H](C)Cn5cnnn5)ccn4)nn23)c1C#N` [compound 481] was tested. Which IC50 did it give?
Its IC50 is under 10 nM.

`C[C@@H](Cn1cnnn1)Oc1cc(-c2ccc3ncc(-c4cccc(OCC#N)c4C#N)n3n2)ccc1F` [compound 177] was tested. Which IC50 did it give?
Its IC50 is under 10 nM.

Which IC50 does the source give for `C[C@@H](Cn1cnnn1)Nc1cc(-c2ccc3ncc(-c4ncccc4C#N)n3n2)ccc1F` [compound 485] here?
The IC50 was under 10 nM.

`C[C@@H](Cn1cnnn1)Oc1cccc(-c2ccn3ncc(-c4cccc(C(=O)N5CCn6ccnc6C5)c4)c3n2)c1` [compound 109] was tested. Which IC50 did it give?
The IC50 was 10 to 100 nM.

How did the IC50 turn out when `C[C@@H](Cn1cnnn1)Oc1cc(-c2ccn3ncc(-c4cnn(C(F)F)c4)c3n2)ccc1F` [compound 144] was run?
The IC50 was under 10 nM.

With `COCCCOC(=O)c1c(-c2cnc3ccc(-c4ccc(F)c(O[C@@H](C)Cn5cnnn5)c4)nn23)cnn1CCCOC` [compound 224] as the molecule, how does the IC50 read?
The IC50 was over 100 nM.

How did the IC50 turn out when `C[C@@H](Cn1cnnn1)Oc1cc(-c2ccn3ncc(-c4ccc[nH]c4=O)c3n2)ccc1F` [compound 167] was run?
The IC50 was under 10 nM.

With `C[C@@H](Cn1cnnn1)Oc1cccc(-c2ccn3ncc(-c4cccc(C(=O)NC5CCN(C)C(=O)C5)c4)c3n2)c1` (stereo partly shown) [compound 112] as the molecule, how does the IC50 read?
The IC50 was under 10 nM.

With `C[C@@H](Cn1cnnn1)Oc1cc(-c2ccc3ncc(-c4ccccc4C#N)n3n2)ccc1F` [Example 121, 2-[6-(4-fluoro-3-{[(2S)-1-(1H-tetrazol-1-yl)propan-2-yl]oxy}phenyl)imidazo[1,2-b]pyridazin-3-yl]benzonitrile] as the molecule, how does the IC50 read?
Its IC50 is under 10 nM.

Which IC50 does the source give for `C[C@@H](Cn1cnnn1)Oc1cc(-c2ccc3ncc(-c4cccc(C#N)c4C#N)n3n2)ccc1F` [compound 186] here?
Its IC50 is under 10 nM.

Which IC50 does the source give for `C[C@@H](Cn1cnnn1)Oc1cccc(-c2ccn3ncc(-c4cccc(C(=O)NC5CN(C)C5)c4)c3n2)c1` [compound 70] here?
Its IC50 is under 10 nM.

How did the IC50 turn out when `COCCNc1cccc(-c2cnn3ccc(-c4ccc(F)c(O[C@@H](C)Cn5cnnn5)c4)nc23)c1C#N` [compound 180] was run?
The IC50 was under 10 nM.

For `C[C@@H](Cn1cnnn1)Oc1cc(-c2ccc3ncc(-c4cccc(OCCN5CCCC5=O)c4C#N)n3n2)ccc1F` [compound 207], which IC50 is on record?
The IC50 was under 10 nM.

For `C[C@@H](Cn1cnnn1)Oc1cccc(-c2ccn3ncc(-c4cccc(C(=O)Nc5ccccn5)c4)c3n2)c1` [compound 83], which IC50 is on record?
Its IC50 is under 10 nM.

For `C[C@@H](Cn1cnnn1)Oc1cccc(-c2ccn3ncc(-c4ccc(N5CCOCC5)cc4)c3n2)c1` [compound 15], which IC50 is on record?
Its IC50 is 10 to 100 nM.

With `COc1ccnc(-c2cnc3ccc(-c4ccc(F)c(N(C)[C@@H](C)Cn5cnnn5)c4)nn23)c1C#N` [compound 479] as the molecule, how does the IC50 read?
The IC50 was over 100 nM.

`C[C@@H](Cn1cnnn1)Oc1cccc(-c2ccn3ncc(-c4cccc(C(=O)NCCc5ccccn5)c4)c3n2)c1` [compound 106] was tested. Which IC50 did it give?
The IC50 was under 10 nM.

With `C[C@@H](Cn1cnnn1)Oc1cc(-c2ccc3ncc(-c4cc(C#N)ccc4C#N)n3n2)ccc1F` [compound 185] as the molecule, how does the IC50 read?
Its IC50 is under 10 nM.

How did the IC50 turn out when `COc1ncccc1-n1cnc2ccc(-c3ccc(F)c(O[C@@H](C)Cn4cnnn4)c3)nc21` [compound 174] was run?
Its IC50 is 10 to 100 nM.

Same assay, conditions: in vitro CaMKII inhibitory activity (binding assay), human CaMKIIδ; read-out: Act

With `COc1cc(F)cc(-c2cnc3ccc(-c4ccc(F)c(O[C@@H](C)Cn5cnnn5)n4)nn23)c1C#N` [Example 447, 4-fluoro-2-[6-(5-fluoro-6-{[(2S)-1-(1H-tetrazol-1-yl)propan-2-yl]oxy}pyridin-2-yl)imidazo[1,2-b]pyridazin-3-yl]-6-methoxybenzonitrile] as the molecule, how does the IC50 read?
The IC50 was under 10 nM.

`C[C@@H](Cn1cnnn1)Oc1cncc(-c2ccc3ncn(-c4cccc(Cl)c4C#N)c3n2)n1` [compound 446] was tested. Which IC50 did it give?
The IC50 was over 100 nM.

How did the IC50 turn out when `COc1ccnc(-c2cnc3ccc(-c4cncc(O[C@@H](C)Cn5cnnn5)n4)nn23)c1C#N` [compound 429] was run?
Its IC50 is over 100 nM.

With `C[C@@H](Cn1cnnn1)Oc1cc(-c2ccn3ncc(-c4nccnc4C#N)c3n2)ccc1F` [compound 294] as the molecule, how does the IC50 read?
Its IC50 is under 10 nM.

How did the IC50 turn out when `C[C@@H](Cn1cnnn1)Oc1cc(-c2ccc3ncc(-c4cc(=O)[nH]cc4C#N)n3n2)ccc1F` [compound 241] was run?
The IC50 was under 10 nM.

`CCOc1ccnc(-n2cnc3ccc(-c4ccnc(O[C@@H](C)Cn5cnnn5)c4)nc32)c1C#N` [compound 375] was tested. Which IC50 did it give?
The IC50 was 10 to 100 nM.

How did the IC50 turn out when `C[C@@H](Cn1cnnn1)Oc1cccc(-c2ccc3ncn(-c4cccc(Cl)c4C#N)c3n2)n1` [compound 453] was run?
Its IC50 is 10 to 100 nM.

`C[C@@H](Cn1cnnn1)Oc1cc(-c2ccc3ncn(-c4cc(F)ccc4C#N)c3n2)cnn1` [Example 347, 4-fluoro-2-[5-(6-{[(2S)-1-(1H-tetrazol-1-yl)propan-2-yl]oxy}pyridazin-4-yl)-3H-imidazo[4,5-b]pyridin-3-yl]benzonitrile] was tested. Which IC50 did it give?
Its IC50 is 10 to 100 nM.

For `C[C@@H](Cn1cnnn1)Oc1nc(-c2ccc3ncc(-c4cc(F)ccc4C#N)n3n2)ccc1F` [compound 449], which IC50 is on record?
Its IC50 is under 10 nM.

How did the IC50 turn out when `C[C@@H](Cn1cnnn1)Oc1cccc(-c2ccc3ncc(-c4cc(F)ccc4C#N)n3n2)n1` [Example 325, 4-fluoro-2-[6-(6-{[(2S)-1-(1H-tetrazol-1-yl)propan-2-yl]oxy}pyridin-2-yl)imidazo[1,2-b]pyridazin-3-yl]benzonitrile] was run?
The IC50 was under 10 nM.

With `C[C@@H](Cn1cnnn1)Oc1cc(-c2ccc3ncn(-c4cc(F)ccc4C#N)c3n2)ccc1F` [compound 292] as the molecule, how does the IC50 read?
The IC50 was under 10 nM.

How did the IC50 turn out when `COc1ncc(F)cc1-c1cnc2ccc(-c3ccc(F)c(O[C@@H](C)Cn4cnnn4)c3)nn12` [compound 270] was run?
The IC50 was under 10 nM.

With `C[C@@H](Cn1cnnn1)Oc1cc(-c2ccc3ncc(-c4cc(=O)n(C)cc4C#N)n3n2)ccc1F` [compound 242] as the molecule, how does the IC50 read?
The IC50 was under 10 nM.

Which IC50 does the source give for `C[C@@H](Cn1cnnn1)Oc1cccc(-c2ccc3ncc(-c4nccc(OCC5COC5)c4C#N)n3n2)c1` [compound 352] here?
The IC50 was under 10 nM.

`COc1cc(F)cc(-c2cnc3ccc(-c4cncc(O[C@@H](C)Cn5cncn5)n4)nn23)c1C#N` [compound 443] was tested. Which IC50 did it give?
The IC50 was under 10 nM.

Which IC50 does the source give for `C[C@@H](Cn1cnnn1)Oc1cc(-c2ccc3ncc(-c4cc(F)cn(C)c4=O)n3n2)ccc1F` [compound 317] here?
The IC50 was under 10 nM.

For `C[C@@H](Cn1cnnn1)Oc1cc(-c2ccc3ncn(-c4cc(F)ccc4C#N)c3n2)ccn1` [compound 343], which IC50 is on record?
Its IC50 is under 10 nM.

With `C[C@@H](Cn1cnnn1)Oc1cc(-c2ccc3ncc(-c4ccsc4C(=O)O)n3n2)ccc1F` [compound 243] as the molecule, how does the IC50 read?
The IC50 was over 100 nM.

With `C[C@@H](Cn1cnnn1)Oc1cccc(-c2ccc3ncc(-c4cccn(C)c4=O)n3n2)c1` [Example 253, 1-methyl-3-[6-(3-{[(2S)-1-(1H-tetrazol-1-yl)propan-2-yl]oxy}phenyl)imidazo[1,2-b]pyridazin-3-yl]-1,2-dihydropyridin-2-one] as the molecule, how does the IC50 read?
The IC50 was under 10 nM.

For `C[C@@H](Cn1cnnn1)Oc1cccc(-c2ccc3nnc(-c4cc(F)ccc4C#N)n3n2)c1` [compound 387], which IC50 is on record?
Its IC50 is over 100 nM.

For `C[C@@H](Cn1cnnn1)Oc1cccc(-c2ccc3ncc(-c4cc(=O)[nH]cc4C#N)n3n2)c1` [compound 318], which IC50 is on record?
Its IC50 is under 10 nM.

How did the IC50 turn out when `C[C@@H](Cn1cnnn1)Oc1cc(F)cc(-c2ccc3ncc(-c4ncccc4C#N)n3n2)c1` [compound 296] was run?
The IC50 was under 10 nM.

With `C[C@@H](Cn1cnnn1)Oc1cccc(-c2ccc3ncc(-c4cccn(CC(F)F)c4=O)n3n2)c1` [compound 340] as the molecule, how does the IC50 read?
Its IC50 is under 10 nM.

How did the IC50 turn out when `C[C@@H](Cn1cnnn1)Oc1cc(-c2ccc3ncc(-c4ccc(=O)n(C)c4C#N)n3n2)ccc1F` [compound 256] was run?
The IC50 was over 100 nM.

Which IC50 does the source give for `COCCCn1ncc(-c2cnc3ccc(-c4ccc(F)c(O[C@@H](C)Cn5cnnn5)c4)nn23)c1C(=O)NCCOC` [compound 237] here?
The IC50 was over 100 nM.

`COc1cc(-c2cnc3ccc(-c4ccc(F)c(O[C@@H](C)Cn5cnnn5)c4)nn23)c(C#N)cn1` [compound 240] was tested. Which IC50 did it give?
The IC50 was under 10 nM.
